Converted amounts (≈) assume the structure as drawn. Where two headings read alike, the source gives them in different places.
Key:
Format in all cases: cell-based
[1] = test system: Streptococcus pneumoniae 1175; conditions: microtiter broth dilution
Description: (§1) The assay described herein includes a panel of bacterial strains assembled to include a variety of target pathogenic species, including representatives of macrolide resistance mechanisms that have been characterized. In many cases, both the macrolide-susceptible parent strain and the macrolide-resistant strain derived from it are available to provide a more accurate assessment of the compound's ability to circumvent the resistance mechanism. The assay is performed in microtiter trays and interpreted according to Performance Standards for Antimicrobial Susceptibility Testing; 14th Informational Supplement (M100-S14), published by The National Committee for Clinical Laboratory Standards (NCCLS) guidelines; the MIC is used to compare strains. Compounds are initially dissolved in DMSO as 40 mg/ml stock solutions.

[2] = test system: Streptococcus pneumoniae 1095; conditions: microtiter broth dilution
Description: as §1

[3] = test system: Streptococcus pneumoniae 1016; assay: MIC, microtiter broth dilution (NCCLS M100-S14), S. pneumoniae 1016 (susceptible)
Description: as §1

[4] = test system: Streptococcus pyogenes 1079; assay: MIC, microtiter broth dilution (NCCLS M100-S14), S. pyogenes 1079 (ermB)
Description: as §1

[5] = test system: Haemophilus influenzae 1218; assay: MIC, microtiter broth dilution (NCCLS M100-S14), H. influenzae 1218 (susceptible)
Description: as §1

[6] = S. pneumoniae 1016 (susceptible)
[7] = H. influenzae 1218 (susceptible)

| SMILES | MIC S. pneumo. 1175 ([1]; S. pneumoniae 1175 (mefA)) [mg/L] | MIC S. pneumo. 1095 ([2]; S. pneumoniae 1095 (ermB)) [mg/L] | MIC S. pneumo. 1016 [3, 6] [mg/L] | MIC S. pyogenes 1079 ([4]; S. pyogenes 1079 (ermB)) [mg/L] | MIC H. influenzae 1218 [5, 7] [mg/L] | MIC S. pneumo. 1175 ([1]; Streptococcus pneumoniae 1175) [mg/L] | MIC S. pneumo. 1095 ([2]; Streptococcus pneumoniae 1095) [mg/L] | MIC S. pneumo. 1016 ([3]; Streptococcus pneumoniae 1016) [mg/L] | MIC S. pyogenes 1079 ([4]; Streptococcus pyogenes 1079) [mg/L] | MIC H. influenzae 1218 ([5]; Haemophilus influenzae 1218) [mg/L] |
| --- | --- | --- | --- | --- | --- | --- | --- | --- | --- | --- |
| CC[C@H]1OC(=O)[C@H](C)C(=O)[C@H](C)[C@@H](O[C@@H]2O[C@H](C)C[C@H](N(C)C)[C@H]2O)[C@](C)(OC)C[C@@H](C)C(=O)[C@H](C)[C@H]2N(CC3(C)CN(C(=O)c4cc5cccnc5[nH]4)C3)C(=O)O[C@]12C [6.23] | 0.25 (≈ 0.298 µM) | <0.06 | <0.06 | 64 (≈ 76.2 µM) |  |  |  |  |  |  |
| CCC1OC(=O)C(C)C(=O)C(C)C(OC2OC(C)CC(N(C)C)C2O)C(C)(OC)CC(C)C(=O)C(C)C2N(CC3CCN(Cc4cccc5cccnc45)C3)C(=O)OC12C (stereo not drawn) [11.12] | <0.06 | <0.06 | <0.06 |  | <0.06 |  |  |  |  |  |
| CCC1OC(=O)C(C)C(=O)C(C)C(OC2OC(C)CC(N(C)C)C2O)C(C)(OC)CC(C)C(=O)C(C)C2N(CC3CCN(Cc4cccc5cnccc45)C3)C(=O)OC12C (stereo not drawn) [11.13] | <0.06 | <0.06 | <0.06 |  | 0.25 (≈ 0.299 µM) |  |  |  |  |  |
| CCC1OC(=O)C(C)C(=O)C(C)C(OC2OC(C)CC(N(C)C)C2O)C(C)(OC)CC(C)C(=O)C(C)C2N(C3CN(Cc4ccc5ncccc5c4)C3)C(=O)OC12C (stereo not drawn) [Example 1.07, (quinolin-6-yl)methyl] |  |  |  |  |  | 0.25 (≈ 0.309 µM) | <0.06 | <0.06 | 16 (≈ 19.8 µM) |  |
| CCC1OC(=O)C(C)C(=O)C(C)C(OC2OC(C)CC(N(C)C)C2O)C(C)(OC)CC(C)C(=O)C(C)C2N(C3CN(Cc4ccc(F)c(F)c4)C3)C(=O)OC12C (stereo not drawn) [Example 1.08, 3,4-difluorobenzyl] |  |  |  |  |  | 0.25 (≈ 0.315 µM) | 0.5 (≈ 0.63 µM) | <0.06 | >64.00 |  |
| CCC1OC(=O)C(C)C(=O)C(C)C(OC2OC(C)CC(N(C)C)C2O)C(C)(OC)CC(C)C(=O)C(C)C2N(C3CN(Cc4nc5ccccc5[nH]4)C3)C(=O)OC12C (stereo not drawn) [Example 1.09, (1H-benzo[d]imidazo-2-yl)methyl] |  |  |  |  |  | 0.25 (≈ 0.313 µM) | <0.06 | <0.06 | >64.00 |  |
| CCC1OC(=O)C(C)C(=O)C(C)C(OC2OC(C)CC(N(C)C)C2O)C(C)(OC)CC(C)C(=O)C(C)C2N(C3CN(Cc4ccn(-c5ccccn5)n4)C3)C(=O)OC12C (stereo not drawn) [Example 1.10] |  |  |  |  |  | 0.12 (≈ 0.145 µM) | <0.06 | <0.06 | >64.00 |  |
| CCC1OC(=O)C(C)C(=O)C(C)C(OC2OC(C)CC(N(C)C)C2O)C(C)(OC)CC(C)C(=O)C(C)C2N(C3CN(C(COC)c4ccnc5ncccc45)C3)C(=O)OC12C (stereo not drawn) [Example 1.81, 3-descladinosyl-11,12-dideoxy-4-O-methyl-3-oxo-12,11-(oxycarbonyl-(1-(2-(methoxy)-1R-(1,8-napthyridin-4-yl)-ethyl)-azetidin-3-yl)-imino)-erythromycin A] |  |  |  |  |  | <0.063 | 0.5 (≈ 0.585 µM) | <0.063 | 4 (≈ 4.68 µM) |  |
| CCC1OC(=O)C(C)C(=O)C(C)C(OC2OC(C)CC(N(C)C)C2O)C(C)(OC)CC(C)C(=O)C(C)C2N(C3CN(Cc4c(F)cccc4OC)C3)C(=O)OC12C (stereo not drawn) [Example 1.85, 3-descladinosyl-11,12-dideoxy-6-O-methyl-3-oxo-12,11-(oxycarbonyl-(1-(1-fluoro-3-methoxybenzene-2-methyl)-azetidin-3-yl)-imino)-erythromycin A] |  |  |  |  |  |  |  | <0.063 | 16 (≈ 19.9 µM) | 2 (≈ 2.48 µM) |
| CCC1OC(=O)C(C)C(=O)C(C)C(OC2OC(C)CC(N(C)C)C2O)C(C)(OC)CC(C)C(=O)C(C)C2N(C3CN(Cc4c(F)cccc4F)C3)C(=O)OC12C (stereo not drawn) [Example 1.87, 3-descladinosyl-11,12-dideoxy-6-O-methyl-3-oxo-12,11-(oxycarbonyl-(1-(1,3-difluorobenzene-2-methyl)-azetidin-3-yl)-imino)erythromycin A] |  |  |  |  |  |  |  | <0.063 | 8 (≈ 10.1 µM) | 0.5 (≈ 0.63 µM) |
| CCC1OC(=O)C(C)C(=O)C(C)C(OC2OC(C)CC(N(C)C)C2O)C(C)(OC)CC(C)C(=O)C(C)C2N(CC3CN(C(=O)c4cccc5cccnc45)C3)C(=O)OC12C (stereo not drawn) [Example 4.34, 3-descladinosyl-11,12-dideoxy-6-O-methyl-3-oxo-12,11-(oxycarbonyl-((1-(quinoline-8-carbonyl)-azetidin-3-yl)-methyl)-imino)-erythromycin A] |  |  |  |  |  | 1 (≈ 1.19 µM) | 1 (≈ 1.19 µM) | <0.06 |  | 0.25 (≈ 0.299 µM) |

Source: patent publication US7462600B2, “Macrolides” (Pfizer Inc, priority 2004, dated 2008)
